Experiment [1] has as its system BGC-823. Description: Cytotoxicity in human BGC823 cells assessed as reduction in cell viability. Format: functional, cell-based.
Experiment [2] concerns HeLa. Briefly: Cytotoxicity in human HeLa cells assessed as reduction in cell viability. Format: functional, cell-based.
Experiment [3] relates to SGC-7901. Briefly: Cytotoxicity in human SGC7901 cells assessed as reduction in cell viability incubated for 48 hrs by MTT assay. Format: functional, cell-based. Particulars: SGC-7901, 48 h. A general note: Formazan colour is commonly taken as a measure of viable cells.
For experiment [4], the system named is SMMC-7721. Description: Cytotoxicity in human SMMC7721 cells assessed as reduction in cell viability incubated for 48 hrs by MTT assay. It counts as functional, cell-based. Particulars: SMMC-7721, 48 h.
Experiment [5] relates to HepG2. Briefly: Cytotoxicity in human HepG2 cells assessed as reduction in cell viability incubated for 48 hrs by MTT assay. Format: functional, cell-based. Particulars: HepG2, 48 h.
In experiment [6] the test system is BGC-823. Briefly: Cytotoxicity in human BGC823 cells assessed as reduction in cell viability incubated for 48 hrs by MTT assay. It counts as functional, cell-based. Particulars: BGC-823, 48 h.
Experiment [7] has as its system HeLa. Briefly: Cytotoxicity in human HeLa cells assessed as reduction in cell viability incubated for 48 hrs by MTT assay. Format: functional, cell-based.
Experiment [8] has as its system B16-F10. Briefly: Cytotoxicity in mouse B16F10 cells assessed as reduction in cell viability incubated for 72 hrs by MTT assay. Format: functional, cell-based. Particulars: B16-F10, 72 h.
Experiment [9] relates to HepG2. Description: Cytotoxicity in human HepG2 cells assessed as reduction in cell viability incubated for 72 hrs by MTT assay. It counts as functional, cell-based. Particulars: HepG2, 72 h.
For experiment [10], the system named is HT-29. Description: Cytotoxicity in human HT-29 cells assessed as reduction in cell viability incubated for 72 hrs by MTT assay. The following applies: HT-29, 72 h. Format: functional, cell-based.
Experiment [11] relates to HeLa. Briefly: Cytotoxicity in human HeLa cells assessed as reduction in cell viability incubated for 72 hrs by CCK8 assay. It counts as functional, cell-based.
Experiment [12] has as its system A549. Description: Cytotoxicity in human A549 cells assessed as reduction in cell viability incubated for 72 hrs by CCK8 assay. Format: functional, cell-based. The following applies: A549, 72 h.
For experiment [13], the system named is MCF7. Briefly: Cytotoxicity in human MCF7 cells assessed as reduction in cell viability incubated for 72 hrs by CCK8 assay. It counts as functional, cell-based. The following applies: MCF7, 72 h.
In experiment [14] the test system is PC-3. Briefly: Cytotoxicity in human PC3 cells assessed as reduction in cell viability incubated for 72 hrs by CCK8 assay. Particulars: PC-3, 72 h. Format: functional, cell-based.
Experiment [15] has as its system SGC-7901. Description: Cytotoxicity in human SGC7901 cells assessed as reduction in cell viability incubated for 72 hrs by CCK8 assay. It counts as functional, cell-based. The following applies: SGC-7901, 72 h.
Experiment [16] has as its system HepG2. Briefly: Cytotoxicity in human HepG2 cells assessed as reduction in cell viability incubated for 72 hrs by CCK8 assay. It counts as functional, cell-based. The following applies: HepG2, 72 h.
Experiment [17] has as its system A-375. Description: Cytotoxicity in human A375 cells assessed as reduction in cell viability incubated for 24 hrs by MTT assay. It counts as functional, cell-based. Particulars: A-375, 24 h.
Experiment [18] can be described thus: Cytotoxicity in human SPC-A1 cells assessed as reduction in cell viability incubated for 24 hrs by MTT assay. It counts as functional, cell-based. The following applies: SPCA1, 24 h.
In experiment [19] the test system is NCI-H446. Description: Cytotoxicity in human NCI-H446 cells assessed as reduction in cell viability incubated for 24 hrs by MTT assay. It counts as functional, cell-based. The following applies: NCI-H446, 24 h.
The subject of experiment [20] is MDA-MB-231. Briefly: Cytotoxicity in human MDA-MB-231 cells assessed as reduction in cell viability incubated for 48 hrs by SRB assay. It counts as functional. The following applies: MDA-MB-231, 48 h.
Experiment [21] deals with HUVEC. Description: Cytotoxicity in HUVEC cells assessed as reduction in cell viability incubated for 48 hrs by MTT assay. Format: cell-based. The following applies: Homo sapiens.
Experiment [22] relates to MCF7. Description: Cytotoxicity in human MCF7 cells assessed as reduction in cell viability incubated for 48 hrs by SRB assay. Format: functional, cell-based. The following applies: MCF7, 48 h. In general terms: Sulforhodamine B stains cellular protein and so reports cell mass.
Experiment [23] has as its system T-24. Briefly: Cytotoxicity in human T24 cells assessed as reduction in cell viability incubated for 48 hrs by MTT assay. It counts as functional, cell-based. Particulars: T-24, 48 h.
Experiment [24] has as its system A549. Briefly: Cytotoxicity in human A549 cells assessed as reduction in cell viability incubated for 48 hrs by MTT assay. Particulars: A549, 48 h. It counts as functional, cell-based.
Experiment [25] is described as follows: Cytotoxicity in human SPCA2 cells assessed as reduction in cell viability incubated for 48 hrs by MTT assay. Format: functional, cell-based. Particulars: SPCA2, 48 h.
Experiment [26] deals with MDA-MB-231. Briefly: Cytotoxicity in human MDA-MB-231 cells assessed as reduction in cell viability incubated for 24 hrs by MTT assay. Format: functional, cell-based. The following applies: MDA-MB-231, 24 h.
Experiment [27] relates to T47D. Description: Cytotoxicity in human T47D cells assessed as reduction in cell viability incubated for 24 hrs by MTT assay. Format: functional, cell-based.
In experiment [28] the test system is MCF-12A. Briefly: Cytotoxicity in human MCF12A cells assessed as reduction in cell viability incubated for 24 hrs by MTT assay. Format: functional, cell-based.
Experiment [29] concerns MCF7. Description: Cytotoxicity in human MCF7 cells assessed as reduction in cell viability incubated for 24 hrs by MTT assay. It counts as functional, cell-based. The following applies: MCF7, 24 h.
In experiment [30] the test system is HL60/ADR. Description: Cytotoxicity in human HL60/ADR cells assessed as reduction in cell viability incubated for 24 hrs by MTT assay. It counts as functional, cell-based.
The test system of experiment [31] is MDA-MB-468. Briefly: Cytotoxicity in human MDA-MB-468 cells assessed as reduction in cell viability incubated for 24 hrs by MTT assay. The following applies: MDA-MB-468, 24 h. It counts as functional, cell-based.
Experiment [32] relates to HL-60. Description: Cytotoxicity in human HL60 cells assessed as reduction in cell viability incubated for 24 hrs by MTT assay. Particulars: HL-60, 24 h. Format: functional, cell-based.

Broadly, the IC50 is the midpoint of a concentration-inhibition curve. For the compound `CC(=O)O[C@H]1CC[C@]2(C)[C@H]3CC=C4[C@@H]5[C@@H](C)[C@H](C)CC[C@]5(C(=O)N5CCOCC5)CC[C@@]4(C)[C@]3(C)CC[C@H]2C1(C)C`, the IC50 in [1] is over 10 µM; in experiment [2] it was 2.2 µM.
As for `CC1=C(O)C(=O)C=C2C1=CC=C1[C@@]2(C)CC[C@@]2(C)[C@@H]3C[C@](C)(C(=O)NCC(C)O)CC[C@]3(C)CC[C@]12C` (some centres undefined), the IC50 was found to be 0.1 µM in experiment [3] and 0.61 µM in [4].
As to `CC(=O)O/N=C1\CC[C@]2(C)[C@H]3CC=C4[C@@H]5[C@@H](C)[C@H](C)CC[C@]5(C(=O)Nc5ccccc5)CC[C@@]4(C)[C@]3(C)CC[C@H]2C1(C)C`, the concentration for half-maximal inhibition (IC50) came to 21.2 µM in experiment [5], 8.1 µM in experiment [6] and 9.3 µM in experiment [7].
For the compound `CCCC(=O)O[C@@H]1C[C@]2(C)[C@H]3CC=C4[C@@H]5CC(C)(C)CC[C@]5(C(=O)NCCCCCCCCCCC(=O)O)CC[C@@]4(C)[C@]3(C)CC[C@H]2C(C)(C)[C@H]1OC(=O)CCC`, the IC50 was found to be 5.7 µM in experiment [8], 27.6 µM in experiment [9] and 1.37 µM in experiment [10].
As for `COC(=O)C1CCCN1C(=O)[C@]12CC[C@@H](C)[C@H](C)[C@H]1C1=CC[C@@H]3[C@@]4(C)C[C@@H](OC(C)=O)[C@H](OC(C)=O)[C@@](C)(COC(C)=O)[C@@H]4CC[C@@]3(C)[C@]1(C)CC2` (some centres undefined), the IC50 amounted to 4.8 µM in [11]; 2.4 µM in experiment [12]; 4.5 µM in experiment [13]; 9.2 µM in experiment [14]; 4.6 µM in experiment [15]; 0.9 µM in experiment [16].
Regarding `CC(=O)O/N=C1\CC[C@]2(C)[C@H]3CC=C4[C@@H]5[C@@H](C)[C@H](C)CC[C@]5(C(=O)Nc5ccccc5C(=O)O)CC[C@@]4(C)[C@]3(C)CC[C@H]2C1(C)C`, the IC50 in experiment [5] is 23.7 µM; in experiment [6] it was 9.2 µM; in experiment [7], 13.8 µM.
Regarding `CC(=O)OC[C@]1(C)[C@@H]2CC[C@]3(C)[C@H](C(=O)C=C4[C@H]5[C@](C(=O)OCC(=O)N/N=C/c6ccc(Cl)cc6)(CC[C@@H](C)[C@@]5(C)O)CC[C@]43C)[C@@]2(C)CC[C@@H]1OC(C)=O`, the IC50 in experiment [17], in [18] and in experiment [19] was over 100 µM each time.
For `CCCC(=O)O[C@H]1CC[C@]2(C)[C@H]3CC=C4[C@@H]5[C@@H](C)[C@H](C)CC[C@]5(C(=O)N5CCOCC5)CC[C@@]4(C)[C@]3(C)CC[C@H]2C1(C)C`, the values for the IC50 in experiment [1] and in experiment [2] were 9.7 µM and over 10 µM, respectively.
By GI50 is commonly meant the concentration giving 50% growth inhibition. `C[C@H]1[C@H](C)CC[C@]2(C(=O)O)CC[C@]3(C)C(=CC[C@@H]4[C@@]5(C)C[C@@H](O)[C@H](O)[C@@](C)(CO)[C@@H]5CC[C@]43C)[C@H]12` [ASIATIC ACID]: the 50% inhibitory concentration (IC50) in [11] was 4 to 55.1 µM; in [12] it was 18.8 µM; in [13] it was 32.8 µM; in [14] it was 53.6 µM; in experiment [15] it was 36.8 µM; in experiment [21], over 100 µM. The IC50 in experiment [23] came to 33.7 µM; in [24], 37.8 µM; in experiment [25], 39.4 µM. The GI50 in experiment [20] was 18.1 µM; in experiment [22], 19.1 µM.
With `CC1(C)CC[C@]2(C(=O)O)CC[C@]3(C)C(=CC[C@@H]4[C@@]5(C)CC[C@H](O)C(C)(C)[C@@H]5CC[C@]43C)[C@@H]2C1` [OLEANOLIC_ACID], the IC50 in experiment [26] was over 50 µM; in [27], 36.2 µM; in [28], over 50 µM; in experiment [29] it was 12.7 µM; in experiment [30], 28.8 µM; in experiment [31], 38.1 µM. Moreover, in experiment [32], the IC50 is 14.8 µM. Also, the GI50 in [20] amounted to 17.6 µM; in experiment [22], 10.3 µM.

The values above are taken from ChEMBL document CHEMBL4270495, “Oleanane-, ursane-, and quinone methide friedelane-type triterpenoid derivatives: Recent advances in cancer treatment” (Eur J Med Chem, 2017).
